Source: ChEMBL document CHEMBL5053535, “Design, synthesis and biological evaluation of novel aminopyrazole- and 7-azaindole-based Nek1 inhibitors and their effects on zebrafish kidney development” (Bioorg Med Chem Lett, 2021)
In brackets after ≈: the same amount, converted by molar mass.

Key:
[1] = Solubility of the compound in E3 medium with 0.2% DMSO by DAD-HPLC based shake flask method; type: physicochemical
[2] = Permeability across basolateral to apical side in human Caco-2 cells at pH 7.4 at 1 uM; type: ADME, cell-based; details: Caco-2, pH 7.4, read-out: permeability
Danio rerio [3] = organism: Danio rerio; assay: Toxicity in wild type zebra fish model of polycystic kidney disease assessed as minor tubular volume expansion at 0.5 uM incubated for 48 hrs in presence of N-phenyl thiourea further treated with PT-yellow for 20 mins followed by dye washout and incubated in solution containing compound for 96 hrs by fluorescence imaging analysis; type: organism-based; details: zebrafish, in vivo
[4] = Stability of the compound in DMEM measured after 48 hrs by DAD-HPLC method; type: physicochemical; details: read-out: Stability
[5] = Toxicity in zebra fish embryos assessed as lethality at 2.5 uM measured after 24 hrs relative to control; type: organism-based, Danio rerio; details: zebrafish, in vivo, read-out: Activity
[6] = Permeability across apical to basolateral side in human Caco-2 cells at pH 6.5 at 1 uM; type: ADME, cell-based; details: Caco-2, pH 6.5, read-out: permeability
[7] = Permeability across apical to basolateral side in human Caco-2 cells at pH 6.5 assessed as compound recovery at 1 uM; type: ADME, cell-based; details: Caco-2, pH 6.5, read-out: Drug recovery
Danio rerio [8] = organism: Danio rerio; assay: Toxicity in zebra fish embryos assessed as phenotype changes at 0.01 to 2.5 uM measured after 96 hrs; type: organism-based; details: zebrafish, in vivo, dose 0.01-2.5 µM
[9] = molecular target: T1, Serine/threonine-protein kinase Chk1 (Homo sapiens) (UniProt O14757); assay: Inhibition of human recombinant full length N-terminal His tagged CHK1 expressed in baculovirus infected Sf21 insect cells using CHKtide as substrate assessed as residual activity at 1 uM pretreated for 20 mins followed by [33P]-ATP addition measured after 120 mins by radiometric hotspot kinase assay relative to control; details: time 140.0 min
T1 sequence (whole entry): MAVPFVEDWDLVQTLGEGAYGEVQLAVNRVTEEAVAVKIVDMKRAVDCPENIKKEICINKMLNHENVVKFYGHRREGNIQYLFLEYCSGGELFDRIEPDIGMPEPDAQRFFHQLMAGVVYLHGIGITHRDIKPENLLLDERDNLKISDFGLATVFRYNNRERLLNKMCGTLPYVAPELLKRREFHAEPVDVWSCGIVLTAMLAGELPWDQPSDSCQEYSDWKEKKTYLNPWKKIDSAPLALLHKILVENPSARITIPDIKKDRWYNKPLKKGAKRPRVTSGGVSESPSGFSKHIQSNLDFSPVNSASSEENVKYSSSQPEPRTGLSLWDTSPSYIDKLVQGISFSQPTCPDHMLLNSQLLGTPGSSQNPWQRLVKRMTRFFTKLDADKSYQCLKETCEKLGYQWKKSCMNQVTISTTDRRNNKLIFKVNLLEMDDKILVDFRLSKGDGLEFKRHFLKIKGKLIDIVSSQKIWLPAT

[10] = molecular target: T2, Serine/threonine-protein kinase Nek5 (Homo sapiens) (UniProt Q6P3R8); assay: Inhibition of human recombinant NEK5 assessed as residual activity at 1 uM pretreated for 20 mins followed by [33P]-ATP addition measured after 120 mins by radiometric hotspot kinase assay relative to control; details: time 140.0 min
T2 sequence (whole entry): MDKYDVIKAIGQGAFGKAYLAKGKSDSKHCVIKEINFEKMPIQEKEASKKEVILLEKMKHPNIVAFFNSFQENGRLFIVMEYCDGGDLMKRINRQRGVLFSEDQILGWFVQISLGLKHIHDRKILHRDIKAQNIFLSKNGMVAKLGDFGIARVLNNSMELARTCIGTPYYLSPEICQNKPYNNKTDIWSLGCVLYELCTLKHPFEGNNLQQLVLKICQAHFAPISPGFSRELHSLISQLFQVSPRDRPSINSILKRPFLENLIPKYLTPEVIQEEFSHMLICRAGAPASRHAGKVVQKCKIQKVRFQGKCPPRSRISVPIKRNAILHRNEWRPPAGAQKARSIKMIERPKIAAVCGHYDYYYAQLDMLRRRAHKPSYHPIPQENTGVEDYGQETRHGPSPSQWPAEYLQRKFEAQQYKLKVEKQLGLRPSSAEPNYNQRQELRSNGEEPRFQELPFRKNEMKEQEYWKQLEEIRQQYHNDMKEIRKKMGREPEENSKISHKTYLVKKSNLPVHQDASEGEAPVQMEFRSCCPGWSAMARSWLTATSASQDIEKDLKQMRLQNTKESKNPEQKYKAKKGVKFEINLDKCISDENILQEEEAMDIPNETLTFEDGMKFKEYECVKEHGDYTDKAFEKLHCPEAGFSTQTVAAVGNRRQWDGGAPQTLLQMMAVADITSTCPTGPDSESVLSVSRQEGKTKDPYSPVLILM

[11] = molecular target: Wee1-like protein kinase (Homo sapiens) (UniProt P30291); assay: Inhibition of human recombinant full length WEE1 expressed in insect cells using MBP as substrate assessed as residual activity at 1 uM pretreated for 20 mins followed by [33P]-ATP addition measured after 120 mins by radiometric hotspot kinase assay relative to control; details: time 140.0 min
[12] = molecular target: Vascular endothelial growth factor receptor 2 (Homo sapiens) (UniProt P35968); assay: Inhibition of human recombinant C-terminal His6 tagged VEGFR2 (789 to 1356 residues) expressed in baculovirus infected insect cells assessed as residual activity at 1 uM pretreated for 20 mins followed by [33P]-ATP addition measured after 120 mins by radiometric hotspot kinase assay relative to control; details: time 140.0 min
Vascular endothelial growth factor receptor 2 (Homo sapiens), sequence (P35968 whole entry, the tested form may be a part): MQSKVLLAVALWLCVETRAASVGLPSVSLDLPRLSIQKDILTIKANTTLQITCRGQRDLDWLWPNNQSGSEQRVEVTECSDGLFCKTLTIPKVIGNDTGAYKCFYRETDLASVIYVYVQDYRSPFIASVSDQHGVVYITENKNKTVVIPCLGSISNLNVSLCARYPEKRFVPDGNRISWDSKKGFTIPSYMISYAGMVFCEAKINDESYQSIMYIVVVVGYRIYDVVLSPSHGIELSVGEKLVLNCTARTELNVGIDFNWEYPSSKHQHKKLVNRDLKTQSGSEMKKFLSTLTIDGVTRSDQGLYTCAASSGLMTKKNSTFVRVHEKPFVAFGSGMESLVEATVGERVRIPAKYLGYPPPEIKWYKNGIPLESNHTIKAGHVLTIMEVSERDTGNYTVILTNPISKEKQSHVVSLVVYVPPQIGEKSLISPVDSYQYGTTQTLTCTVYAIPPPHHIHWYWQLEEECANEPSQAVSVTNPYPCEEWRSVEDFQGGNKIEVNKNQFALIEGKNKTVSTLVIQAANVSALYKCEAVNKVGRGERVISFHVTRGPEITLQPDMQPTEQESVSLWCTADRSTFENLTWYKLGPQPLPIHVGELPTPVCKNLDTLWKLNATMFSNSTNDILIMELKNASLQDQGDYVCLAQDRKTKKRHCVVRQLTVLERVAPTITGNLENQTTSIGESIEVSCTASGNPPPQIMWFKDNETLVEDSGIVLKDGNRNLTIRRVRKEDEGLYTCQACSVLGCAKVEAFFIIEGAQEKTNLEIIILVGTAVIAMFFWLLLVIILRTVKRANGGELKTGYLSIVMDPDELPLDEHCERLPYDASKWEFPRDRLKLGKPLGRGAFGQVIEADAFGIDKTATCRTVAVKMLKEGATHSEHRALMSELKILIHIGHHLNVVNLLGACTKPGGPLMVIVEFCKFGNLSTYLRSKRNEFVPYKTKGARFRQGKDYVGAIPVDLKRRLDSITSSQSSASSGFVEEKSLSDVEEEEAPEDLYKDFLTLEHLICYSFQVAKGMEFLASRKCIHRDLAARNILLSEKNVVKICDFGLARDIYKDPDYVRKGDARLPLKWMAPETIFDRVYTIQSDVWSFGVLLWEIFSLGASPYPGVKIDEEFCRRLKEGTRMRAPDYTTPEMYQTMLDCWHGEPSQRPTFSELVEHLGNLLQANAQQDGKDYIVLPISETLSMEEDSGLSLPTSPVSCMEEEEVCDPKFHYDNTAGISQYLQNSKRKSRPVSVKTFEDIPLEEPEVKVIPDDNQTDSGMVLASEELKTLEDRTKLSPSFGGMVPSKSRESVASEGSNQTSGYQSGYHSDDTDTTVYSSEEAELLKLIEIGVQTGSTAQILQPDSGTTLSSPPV

Wee1-like protein kinase (Homo sapiens), sequence (P30291 whole entry, looked up, the tested form may be a part): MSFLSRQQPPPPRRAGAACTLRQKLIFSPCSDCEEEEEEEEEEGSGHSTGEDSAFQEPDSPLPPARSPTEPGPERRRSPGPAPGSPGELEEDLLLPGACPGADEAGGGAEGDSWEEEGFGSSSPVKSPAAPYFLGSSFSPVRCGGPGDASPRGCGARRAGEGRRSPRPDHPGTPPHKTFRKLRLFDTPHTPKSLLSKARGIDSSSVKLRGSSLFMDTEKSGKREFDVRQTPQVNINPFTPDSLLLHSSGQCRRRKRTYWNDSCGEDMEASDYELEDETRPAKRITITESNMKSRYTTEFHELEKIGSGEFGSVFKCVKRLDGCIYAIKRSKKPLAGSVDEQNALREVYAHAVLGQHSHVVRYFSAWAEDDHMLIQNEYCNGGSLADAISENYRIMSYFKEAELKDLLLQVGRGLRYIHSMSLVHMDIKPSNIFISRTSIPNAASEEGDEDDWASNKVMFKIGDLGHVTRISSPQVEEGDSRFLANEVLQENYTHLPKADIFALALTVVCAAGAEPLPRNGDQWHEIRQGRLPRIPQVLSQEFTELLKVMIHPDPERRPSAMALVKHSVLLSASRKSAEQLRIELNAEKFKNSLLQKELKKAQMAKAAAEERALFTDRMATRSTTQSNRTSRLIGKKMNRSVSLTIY

**Q.** Which results are given for `COC(=O)c1cccc(-c2cnc3[nH]cc(-c4cccnc4)c3c2)c1`?
**A.** solubility [1]: 1.9 µM (≈ 0.626 µg/mL); Papp B→A at 1 µM [2]: 0.04 ×10⁻⁶ cm/s; Activity (Danio rerio [3]): Toxic; remaining at 48 h [4]: 103%; mortality at 24 h, 2.5 µM [5]: 100%; Papp A→B at 1 µM [6]: 0.13 ×10⁻⁶ cm/s; recovery at 1 µM [7]: 0.4%; Activity (Danio rerio [8]): Non-Toxic; Activity [9]: 48.5%; Activity [10]: 10.4%; Activity [11]: 82.1%; Activity [12]: 34.3%
